For data set [1], the target named is LRS-RagD interaction (Homo sapiens, UniProt Q9P2J5). The data set is described as follows: ELISA of LRS-RagD interaction. The class given is binding. How it is done: His-tagged human LRS proteins were diluted in carbonate buffer (100 mM, pH 9.6) to the concentration of 0.5 ng μl^−1. […] Protein from each well was removed and washed three times with PBS mixed with 0.05% Tweed® 20 (PBST), subjected to blocking with PBS containing 5% bovine serum albumin (BSA) for 2 hours. Each well was washed with PBST, followed by the treatment of a compound and GST-tagged human RagD protein simultaneously for 3 hours. GST protein itself was used as a negative control. Each well was treated with GST antibody diluted in PBST and incubated at room temperature for 1 h. After washing with PBST, the HRP-conjugated anti-horse IgG secondary antibody was incubated at room temperature for 1 h. TMB was added to each well for colorimetric development. […] To stop the chemical reaction, the treatment with 1 m H3PO4 was done. Finally, absorbance at 450 nm were measured.
Sequence of LRS-RagD interaction (Q9P2J5 whole entry): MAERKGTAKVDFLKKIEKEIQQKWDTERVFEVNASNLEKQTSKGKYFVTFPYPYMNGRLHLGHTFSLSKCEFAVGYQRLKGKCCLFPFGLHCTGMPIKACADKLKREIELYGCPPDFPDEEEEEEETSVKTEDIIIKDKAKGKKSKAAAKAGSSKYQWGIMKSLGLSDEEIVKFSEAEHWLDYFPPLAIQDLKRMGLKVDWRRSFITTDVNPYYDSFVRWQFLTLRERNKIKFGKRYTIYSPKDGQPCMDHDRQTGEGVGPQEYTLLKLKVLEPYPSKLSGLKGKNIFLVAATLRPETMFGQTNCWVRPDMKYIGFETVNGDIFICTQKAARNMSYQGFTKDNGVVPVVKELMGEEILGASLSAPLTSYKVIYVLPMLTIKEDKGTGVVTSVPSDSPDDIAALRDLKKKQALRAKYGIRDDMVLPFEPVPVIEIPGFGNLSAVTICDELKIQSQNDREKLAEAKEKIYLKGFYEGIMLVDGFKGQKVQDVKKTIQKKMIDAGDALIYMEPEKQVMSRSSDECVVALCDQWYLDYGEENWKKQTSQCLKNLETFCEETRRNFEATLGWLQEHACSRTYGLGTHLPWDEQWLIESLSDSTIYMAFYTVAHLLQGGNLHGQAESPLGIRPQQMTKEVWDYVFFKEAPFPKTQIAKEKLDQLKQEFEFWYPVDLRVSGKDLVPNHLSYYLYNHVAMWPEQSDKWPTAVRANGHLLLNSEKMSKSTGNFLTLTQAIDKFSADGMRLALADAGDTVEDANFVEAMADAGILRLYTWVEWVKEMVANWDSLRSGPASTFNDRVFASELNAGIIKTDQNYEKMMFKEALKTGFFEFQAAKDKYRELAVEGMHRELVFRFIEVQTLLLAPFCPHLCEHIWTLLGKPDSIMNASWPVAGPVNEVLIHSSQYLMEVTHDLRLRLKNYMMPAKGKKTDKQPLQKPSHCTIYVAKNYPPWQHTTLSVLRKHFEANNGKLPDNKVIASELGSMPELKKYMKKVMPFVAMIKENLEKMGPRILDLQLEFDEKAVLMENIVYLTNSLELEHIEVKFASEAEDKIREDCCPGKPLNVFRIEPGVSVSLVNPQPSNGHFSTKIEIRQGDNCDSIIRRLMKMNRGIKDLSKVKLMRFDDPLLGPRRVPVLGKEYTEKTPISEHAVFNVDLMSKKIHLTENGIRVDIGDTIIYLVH
Background: An ELISA detects its analyte on a solid surface through an enzyme-linked reagent.

Data set [2] has as its target T1, Human LRS proteins (Homo sapiens, UniProt Q9P2J5).
T1 construct: His
The experiment in a line: Surface plasmon resonance (SPR) binding to LRS. The following applies: purified LRS. How it is done:
The dissociation […] constant (KD) toward His-LRS proteins was determined by using SPR instrument (Biacore T100) at the national center for inter-university research facilities (NCIRF) in Seoul National University. The carboxyl group on the surface of CMS chip was able to be replaced with protein by forming reactive succinimide ester with 1-ethyl-3-(3-dimethylaminopropyl)-carbodiimide (EDC) and N-hydroxysuccinimide (NHS). Human LRS proteins (1.5×PBS, pH 7.3) were immobilized on flow cell 2 (imed RU; 12000) by leading to amide bond formation with NHS ester. The residual NHS ester was quenched with 1 M ethanolamine-HCl (pH 8.0). Amide bond formation alone, without any protein t, was performed on flow cell 1 as a control. The immobilization process was proceeded on PBS buffer. After the immobilization of hLRS, compounds were flowed for 60 s at a flow rate of 20 μl min^−1 in various concentrations from 1 μM to […] was then flowed at the same flow rate for 200 s for dissociation of compounds. As a running buffer, 1×PBS (pH 7.3) containing 3% DMSO and 0.005% P2O was used. The experiment was performed at 25° C. Data analysis was done by using Biacore T100 Evaluation software. […] The dissociation constant (KD) was calculated by fitting to the 1:1 binding model.
(In SPR one partner is held on a chip, and binding of the other changes the refractive index at the surface.)

Data set [3] deals with mTORC1. The experiment in a line: Western blotting, mTORC1 signalling pathway in HEK293T cells. Format: cell-based. The following applies: HEK293T cells. Here is the method: HEK293T cell was cultured in Dulbecco modified eagle medium (DMEM) with 10% (v/v) fetal bovine serum (FBS) and 1% (v/v) antibiotic-antimycotic solution. […] The cells were cultured in 100-mm culture dish in an incubator at 37° C., in 5% CO2.
Cells were lysed with Radio-ImmunoPrecipitation Assay (RIPA) buffer (50 mM Tris, pH 7.8, 150 mM NaCl, 0.5% deoxycholate, 1% IGEPAL CA-630, protease inhibitor cocktail, and phosphatase inhibitors). Protein was obtained by transferring supernatant after centrifugation at 15000 rpm for 20 min. Protein concentration was measured with Micro BCA™ protein assay kit. Overall protein sampling procedure was done at 4° C. Prepared protein samples were analyzed with SDS-PAGE. Protein after electrophoresis was transferred into nitrocellulose membrane. Membrane was blocked with TBST mixed with 2% BSA over at least 1 h at r.t. Primary antibodies were incubated overnight at 4° C. […] After washing with TBST, HRP-labeled anti-rabbit IgG secondary antibody was treated at room temperature for 1 h. After washing with TBST, developing by Amersham ECL prime solution was done. Chemiluminescent signal was imaged by ChemiDoc™ MP imaging system.
A general note: A western blot detects proteins with antibodies after separation by electrophoresis.

Data set [4] relates to HeLa human cervical cancer cells. The data set is described as follows: Western blot analysis of LC3 and p62 (autophagy) in HeLa cells. Format: cell-based. The following applies: 6 h, 200 nM Rap, 10 nM Baf, 20 μM 21f, compared with DMSO. How it is done:
HEK293T cell was cultured in Dulbecco modified eagle medium (DMEM) with 10% (v/v) fetal bovine serum (FBS) and 1% (v/v) antibiotic-antimycotic solution. HeLa, DU145, and Ca Ski cells were cultured in RPMI 1640 medium with 10% (v/v) FBS and 1% (v/v) antibiotic-antimycotic solution. The cells were cultured in 100-mm culture dish in an incubator at 37° C., in 5% CO2.
Cells were lysed with Radio-ImmunoPrecipitation Assay (RIPA) buffer (50 mM Tris, pH 7.8, 150 mM NaCl, 0.5% deoxycholate, 1% IGEPAL CA-630, protease inhibitor cocktail, and phosphatase inhibitors). Protein was obtained by transferring supernatant after centrifugation at 15000 rpm for 20 min. Protein concentration was measured with Micro BCA™ protein assay kit. Overall protein sampling procedure was done at 4° C. Prepared protein samples were analyzed with SDS-PAGE. Protein after electrophoresis was transferred into nitrocellulose membrane. Membrane was blocked with TBST mixed with 2% BSA over at least 1 h at r.t. Primary antibodies were incubated overnight at 4° C. The treatment concentration was as follows: Anti-LC3B (ab51520); 1:1000, anti-S6K1 (ab32359); 1:1000, anti-phospho-T389 S6K1 (ab2571); 1:800, anti-p62 (CST 5114); 1:1000, anti-glyceraldehyde-3-phosphate dehydrogenase (GAPDH) (CST 2118); 1:1000, anti-phospho-S65 4E-BP1 (CST 9451); 1:1000, anti-phospho-S757 ULK1 (CST 6888); 1:800, anti-phospho-S473 Akt (CST 4058); 1:1000, anti-phospho-T172 AMPKα (CST 2531). After washing with TBST, HRP-labeled anti-rabbit IgG secondary antibody was treated at room temperature for 1 h. After washing with TBST, developing by Amersham ECL prime solution was done. Chemiluminescent signal was imaged by ChemiDoc™ MP imaging system.

For data set [5], the system named is HeLa cells. The experiment in a line: mCherry-GFP-LC3 puncta imaging. Format: cell-based, human. Particulars: 6 h, 200 nM Rap, 10 nM Baf, 20 μM 21f. Here is the method:
HeLa cells were seeded in chambered coverglass from Nunc and incubated for 24 h. mCherry-GFP-LC3 plasmid was transfected to the cells using Lipofectamine™ 2000 solution. Transfection was proceeded according to manufacturer's protocol.
DeltaVision Elite imaging system was used for the imaging of mCherry-GFP-LC3 transfected HeLa cell. For live-cell imaging, chamber was maintained at 37° C. and in 5% CO2. […] The wavelength range of the used filters is as follows: mCherry (Excitation: 575/25 nm, Emission: 625/45 nm); GFP (Excitation: 475/28 nm, Emission: 525/48 nm). Images were processed and analyzed with SoftWorks deconvolution software.

Molecules are shown by their SMILES.

T1 sequence (Q9P2J5 whole entry): as above

One may read the melting point as the temperature, or range, at which the solid turns liquid. The compound `CN(Cc1ccccc1)c1ncnc2c1[C@@H]1OC[C@H](CN2)N1S(=O)(=O)c1cccc([N+](=O)[O-])c1` gave a melting point of 101 to 103 °C.

On to `CN(Cc1ccccc1)c1ncnc2c1C1OC[C@@H](CN2)N1C(=O)OC(C)(C)C` [Compound 14f], for which the “dose-dependent inhibition of the LRS-RagD interaction (dose-response curves in ELISA)” value (“dose-dependent inhibition” below) in data set [1] is “did not inhibit the LRS-RagD interaction in a dose-dependent manner”. Also, in data set [2], the “concentration-dependent binding to LRS (SPR)” value is given as “did not bind to LRS in a concentration-dependent manner”.

The compound `CN(Cc1ccccc1)c1ncnc2c1[C@@H]1OC[C@H](CN2)N1C(=O)NCc1ccccc1` [Compound 15f] came in with a melting point of 67 to 69 °C. The “dose-dependent inhibition” value in data set [1] is “did not inhibit the LRS-RagD interaction in a dose-dependent manner”.

As for `CN(Cc1ccccc1)c1ncnc2c1CN1[C@@H](CN2)COCS1(=O)=O` [Compound 18f], the melting point is 196 to 198 °C. For the same compound, the “dose-dependent inhibition” value in data set [1] is recorded as “did not inhibit the LRS-RagD interaction in a dose-dependent manner”.

As to `CN(Cc1ccccc1)c1ncnc2c1CN1C(=O)COC[C@@H]1CN2` [Compound 19f], in data set [1], the “dose-dependent inhibition” value was “did not inhibit the LRS-RagD interaction in a dose-dependent manner”. In addition, the “concentration-dependent binding to LRS (SPR)” value in data set [2] is “did not bind to LRS in a concentration-dependent manner”.

For `CN(Cc1ccccc1)c1ncnc2c1CN1C[C@@H]1CN2Cc1ccccc1` (some centres unmarked) [Compound 20f], in data set [1], the “dose-dependent inhibition” value is given as “inhibit the LRS-RagD interaction in a dose-dependent manner” and the “reduction of LRS-RagD interaction by ELISA” value is on record as 15.5%. Besides, the “amount of phospho-T389 S6K1” value in data set [3] (20 μM, 3 h) is recorded as “less than that of 21f”. In data set [3] (20 μM, 3 h, phospho-T389 S6K1 relative to DMSO), the “phosphorylation suppression of S6K1 by western blotting” value was determined as 16.4%.

For `C=CCN1C[C@H]2COC(=O)N2Cc2c(N(C)Cc3ccccc3)ncnc21` [Compound 22f], the melting point lay in the range of 89 to 91 °C. In addition, the “dose-dependent inhibition” value in data set [1] was “did not inhibit the LRS-RagD interaction in a dose-dependent manner”.

Take `CN(Cc1ccccc1)c1ncnc2c1CN(C(=O)OC(C)(C)C)[C@@H]1C=CCN2C1` [Compound 23f]: in data set [1], the “dose-dependent inhibition” value is reported as “did not inhibit the LRS-RagD interaction in a dose-dependent manner”.

As for `CO/C1=C\C(C)=C\[C@@H](C)[C@@H](O)[C@@H](C)C/C(C)=C/C=C/[C@H](OC)[C@@H]([C@@H](C)[C@@H](O)[C@H](C)[C@@]2(O)C[C@@H](O)[C@H](C)[C@@H](C(C)C)O2)OC1=O` [bafilomycin, reference compound], in data set [4], the “LC3 I/LC3 II ratio” value is “increased ratio of LC3 I/LC3 II” and the p62 level entry is “accumulation of p62”. Also, in data set [5], the “mCherry and GFP fluorescence (mCherry-GFP-LC3)” value is “yellow color”.

As for `CO[C@H]1C[C@@H]2CC[C@@H](C)[C@@](O)(O2)C(=O)C(=O)N2CCCC[C@H]2C(=O)O[C@H]([C@H](C)C[C@@H]2CC[C@@H](O)[C@H](OC)C2)CC(=O)[C@H](C)/C=C(\C)[C@@H](O)[C@@H](OC)C(=O)[C@H](C)C[C@H](C)/C=C/C=C/C=C/1C` [rapamycin, reference compound], the “duration of the effect on mTORC1 within cells” value in data set [3] (500 nM, 0 to 24 hours) is on record as “at least 12 hours”.

The values are drawn from patent US11535627B2, “Pyrimidine derivative compound, pharmaceutically acceptable salt thereof, preparation process thereof, and pharmaceutical composition using the same” (Spark Biopharma, Inc., priority 2016, dated 2022).
